Measured values reported in article PMC3675115, “Mycobacterium tuberculosis Rv3406 Is a Type II Alkyl Sulfatase Capable of Sulfate Scavenging” (PLoS ONE, 2013).
Where a name gives a salt, the structure may show the parent alone.

Experiments:
AtsK = biological target: T1, AtsK (Pseudomonas putida, UniProt Q9WWU5); test: NADH/LADH coupled assay, […] nm; assay type: biochemical; conditions: alpha-ketoglutarate, Fe(II), ascorbate; 1 and 10 mM substrate
T1 construct: not described in main text (supplement File S1)
T1 sequence (Q9WWU5 whole entry): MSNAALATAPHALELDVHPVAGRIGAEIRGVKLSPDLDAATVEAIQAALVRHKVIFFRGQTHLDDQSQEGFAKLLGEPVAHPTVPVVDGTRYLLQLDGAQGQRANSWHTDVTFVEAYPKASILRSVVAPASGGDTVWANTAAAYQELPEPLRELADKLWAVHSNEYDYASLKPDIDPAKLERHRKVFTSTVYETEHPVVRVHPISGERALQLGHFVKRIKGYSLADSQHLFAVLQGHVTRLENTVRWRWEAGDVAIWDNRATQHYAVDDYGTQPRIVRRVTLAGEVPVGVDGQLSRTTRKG

Rv3406 = Rv3406 (Mycobacterium tuberculosis, UniProt P9WKZ1); test: NADH/LADH coupled assay, […] nm; assay type: biochemical; conditions: co-substrate with 2-EHS, Fe(II), ascorbate, pH 7.5, 25 C

SMILES	NADH/LADH coupled assay, 340 nm (AtsK)	NADH/LADH coupled assay, 340 nm (Rv3406)
CCCCC(CC)COS(=O)(=O)O (centres unmarked) [2-ethylhexyl sulfate]	we also tested AtsK and found 2-EHS was its preferred substrate as well	
O=C(O)CCC(=O)C(=O)O [α-ketoglutarate]		Rv3406’s activity on 2-EHS is dependent on the cosubstrate αKG
